Assays:
Assay in all cases: Cellular growth inhibition (CellTiter Glo viability assay)
Assay type in all cases: cell-based
[1] = tested on: Calu6 NSCLC cell line; conditions: Homo sapiens
[2] = tested on: H1395 NSCLC cell line; conditions: Homo sapiens
[3] = tested on: H157 NSCLC cell line; conditions: Homo sapiens
[4] = tested on: H1648 NSCLC cell line; conditions: Homo sapiens
[5] = tested on: H1666 NSCLC cell line; conditions: Homo sapiens
[6] = tested on: H2009 NSCLC cell line; conditions: Homo sapiens
[7] = tested on: H2030 NSCLC cell line; conditions: Homo sapiens
[8] = tested on: H2077 NSCLC cell line; conditions: Homo sapiens
[9] = tested on: H2172 NSCLC cell line; conditions: Homo sapiens
[10] = tested on: H460 NSCLC cell line; conditions: Homo sapiens
[11] = tested on: H520 NSCLC cell line; conditions: Homo sapiens
[12] = tested on: LouNH91 NSCLC cell line; conditions: Homo sapiens
[13] = tested on: HCC366 NSCLC cell line; conditions: Homo sapiens
[14] = tested on: HCC4006 NSCLC cell line; conditions: Homo sapiens
[15] = tested on: HCC78 NSCLC cell line; conditions: Homo sapiens
[16] = tested on: H322M NSCLC cell line; conditions: Homo sapiens, NCI-H322M
[17] = tested on: HCC2279 NSCLC cell line; conditions: Homo sapiens
[18] = tested on: PC9 NSCLC cell line; conditions: Homo sapiens
[19] = read-out: Sensitivity Bosutinib

Compound COc1cc(Nc2c(C#N)cnc3cc(OCCCN4CCN(C)CC4)c(OC)cc23)c(Cl)cc1Cl [bosutinib, 4-(2,4-dichloro-5-methoxyphenylamino)-6-methoxy-7-(3-(4-methylpiperazin-1-yl)propoxy)quinoline-3-carbonitrile] has a GI50 ([1]; Calu-6, 96 h) of 2130 nM, an IC50 ([1]; Calu-6, read-out: Sensitivity Bosutinib) greater than 1500 nM and a GI50 ([2]; NCI-H1395, 96 h) of 4720 nM. The IC50 ([2]; NCI-H1395, read-out: Sensitivity Bosutinib) was greater than 1500 nM, the GI50 ([3]; NCI-H157, 96 h) was 1810 nM and the IC50 ([3]; NCI-H157, read-out: Sensitivity Bosutinib) was greater than 1500 nM. The GI50 ([4]; NCI-H1648, 96 h) was 3720 nM, the IC50 ([4]; NCI-H1648, read-out: Sensitivity Bosutinib) was greater than 1500 nM and the GI50 ([5]; NCI-H1666, 96 h) was 1080 nM. The IC50 ([5]; NCI-H1666, read-out: Sensitivity Bosutinib) was less than 1500 nM, the GI50 ([6]; NCI-H2009, 96 h) was 2330 nM and the IC50 ([6]; NCI-H2009, read-out: Sensitivity Bosutinib) was greater than 1500 nM. It also gave a GI50 ([7]; NCI-H2030, 96 h) of 896 nM, an IC50 ([7]; NCI-H2030, read-out: Sensitivity Bosutinib) of less than 1500 nM and a GI50 ([8]; 96 h) of 3790 nM. The IC50 [8, 19] was greater than 1500 nM, the GI50 ([9]; NCI-H2172, 96 h) was 2590 nM and the IC50 ([9]; NCI-H2172, read-out: Sensitivity Bosutinib) was greater than 1500 nM. It also gave a GI50 ([10]; NCI-H460, 96 h) of 1370 nM, an IC50 ([10]; NCI-H460, read-out: Sensitivity Bosutinib) of less than 1500 nM and a GI50 ([11]; NCI-H520, 96 h) of 2640 nM. The IC50 ([11]; NCI-H520, read-out: Sensitivity Bosutinib) was greater than 1500 nM, the GI50 ([12]; LOU-NH91, 96 h) was 186 nM and the IC50 ([12]; LOU-NH91, read-out: Sensitivity Bosutinib) was less than 1500 nM. It also gave a GI50 ([13]; HCC366, 96 h) of 1270 nM, an IC50 ([13]; HCC366, read-out: Sensitivity Bosutinib) of less than 1500 nM and a GI50 ([14]; HCC4006, 96 h) of 120 nM. The IC50 ([14]; HCC4006, read-out: Sensitivity Bosutinib) was less than 1500 nM, the GI50 ([15]; HCC78, 96 h) was 3040 nM and the IC50 ([15]; HCC78, read-out: Sensitivity Bosutinib) was greater than 1500 nM. The GI50 ([16]; 96 h) was 528 nM, the IC50 [16, 19] was less than 1500 nM and the GI50 ([17]; 96 h) was 3250 nM. The IC50 [17, 19] was greater than 1500 nM, the GI50 ([18]; 96 h) was 234 nM and the IC50 ([18]; PC-9, read-out: Sensitivity Bosutinib) was less than 1500 nM.
